Data reported in patent US9771560B2, “High-throughput image-based chemical screening in zebrafish blastomere cell culture” (CHILDREN'S MEDICAL CENTER CORPORATION, priority 2012, dated 2017).
Where “and” joins values, the source holds several entries; their conditions need not be identical. Identical values can stand only once.

Columns and labels:
[1] = tested on: satellite cells from C57BL/6J mice; experiment: In vitro expansion of mouse satellite cells (cell count); assay type: cell-based; conditions: 5 days in culture
Protocol: (§1) SMP isolation was performed as previously described (Cerletti et al., 2008; Sherwood et al., 2004). Briefly, MFA cells were prepared from intact skeletal muscles (EDL, gastrocnemius, quadriceps, soleus, TA, triceps brachii, abdominal) by digesting the muscles with collagenase type II and then dispase enzymes. MFA cells were stained for isolation of CD45^−Sca-1^−Mac-1^−CXCR4^+ b1-integrin^+ cell population by FACS. For in vitro expansion experiments, SMPs were seeded on collagen/laminin-coated plates in F10 (Gibco) containing 20% horse serum (Atlanta Biologics), 1% penicillin-streptomycin (Invitrogen) and 1% glutamax (Invitrogen). […] Cells were counted or used for transplantation after 5 days in culture. For Myogenic colony formation assay cells were fixed and counted after 6 days in culture. […]
(§2) Cultured SMPs were fixed in 4% paraformaldehyde (PFA) and stained with 10 μg/ml Hoechst (Invitrogen). […] The images were analyzed and numbers of cells were counted by the built-in software. […] The images were analyzed and percentage of nuclei in myotubes was calculated using a modified ImageJ macro developed in-house. […]
(§3) We hypothesized that the chemical hits enhancing skeletal muscle development in zebrafish blastomeres may likewise promote muscle precursor cell formation and/or expansion in other species. […] Cell number in the resulting colonies was determined after 5 days in culture.

[2] = tested on: satellite cells from mdx mice; experiment: In vitro expansion of mdx satellite cells (cell count); assay type: cell-based, mouse; conditions: 5 days in culture
Protocol: as §1, §2, §3

[3] = tested on: cAMP levels in mouse satellite cell cultures; experiment: cAMP-Glo assay in cultured satellite cells; assay type: cell-based
Protocol: cAMP assay was performed using the cAMP-Glo™ Assay kit (Promega) according to the manufacturer's protocol.
To test forskolin's effect on satellite cell survival and proliferation, single cells were plated at one cell per well in 96-well plates and treated with forskolin or DMSO. After six days in vitro culture, we quantified the number of wells containing any number of myogenic cells (a measure of cell survival) and the number of cells in those wells (a measure of cell proliferation) (FIG. 3D).

cultured satellite cells = experiment: Flow cytometry of CXCR4 and β-1 Integrin on cultured satellite cells; assay type: cell-based, mouse; conditions: after 5 days in culture, FACS
Protocol: FIG. 5C, GFP^+ satellite cells were harvested from β-actin GFP mice and were transplanted into TA muscle of recipient mdx mice, injured 1 day previously by injection of cardiotoxin, either right after isolation or after five days in culture with DMSO or forskolin treatment. […] Scale bars represent 200 μm.
Flow cytometry analysis was performed using a BD LSR II, provided through the Harvard Stem Cell Institute Flow Cytometry Core Facility. Flow cytometry data were collected using DIVA (Becton Dickinson (BD), Franklin Lakes, N.J.) software and analyzed offline using Flowjo software (Tree Star, Inc., Macintosh version 8.1.1, Ashland, Oreg.). Antibodies used for flow cytometry included: APC/Cy7 anti-mouse Ter119, clone Ter119 (1:200, Biolegend 116223), APC/Cy7 anti-mouse CD45, clone 30-F11 (1:200, Biolegend 103116), APC/Cy7 anti-mouse CD11b, clone M1/70 (1:200, Biolegend 101226), APC Anti-mouse Ly-6A/E (Sca-1), clone D7 (1:200, Biolegend 108112), Biotin anti-mouse CD184 (CXCR4, Fusin) (1:100, BD Biosciences 551968), Streptavidin PE-Cy7 (1:100, eBioscience 25-4317-82), PE anti-mouse/rat CD29 Antibody (1:100, Biolegend 102208). Live cells were identified by positive staining with calcein blue (1:1000) (Invitrogen, Carlsbad, Calif.) and negative staining for propidium iodide (PI, 1 μg/mL). […]

SMILES: C=C[C@@]1(C)CC(=O)[C@]2(O)[C@@]3(C)[C@@H](O)CCC(C)(C)[C@@H]3[C@H](O)[C@H](OC(C)=O)[C@@]2(C)O1 [forskolin]
- total number of cells, fold change compared to DMSO treated cells ([1]; absence of bFGF): ~2 folds
- total number of cells, fold change compared to DMSO treated cells ([1]; presence of bFGF): ~2.3 folds
- fold change of number of satellite cells compared to DMSO [2]: ~3.6 folds
- concentration of cAMP, fold increase compared to DMSO treated cells ([3]; 25 μM forskolin): ~4.5 fold
- concentration of cAMP, fold increase compared to DMSO treated cells ([3]; 50 μM forskolin): ~5.2 fold
- concentration of cAMP, fold increase compared to DMSO treated cells ([3]; 100 μM forskolin): ~5.7 fold
- frequency of cells co-expressing CXCR4 and β-1 Integrin (cultured satellite cells): 78.9%+/−1.52% and ~80%
